In patent publication US5500424A, “Pyrimidine and pyridine derivatives, their production and use” (Nihon Nohyaku Co., Ltd., priority 1993, dated 1996):

Assays:
[1] = target: T1, acyl-CoA:cholesterol acyltransferase (ACAT) (Oryctolagus cuniculus, UniProt G1SFD9); assay: Inhibitory activity on acyl-CoA:cholesterol acyltransferase (ACAT); assay type: biochemical, white rabbit; details: rabbit intestinal mucosa microsomes, read-out: Inhibition rate
T1 construct: The intestinal mucosa of a white rabbit was homogenized and microsomal fraction was obtained; from tissue; host or cells: white rabbit intestinal mucosa, microsomal fraction
T1 sequence (G1SFD9 1-524): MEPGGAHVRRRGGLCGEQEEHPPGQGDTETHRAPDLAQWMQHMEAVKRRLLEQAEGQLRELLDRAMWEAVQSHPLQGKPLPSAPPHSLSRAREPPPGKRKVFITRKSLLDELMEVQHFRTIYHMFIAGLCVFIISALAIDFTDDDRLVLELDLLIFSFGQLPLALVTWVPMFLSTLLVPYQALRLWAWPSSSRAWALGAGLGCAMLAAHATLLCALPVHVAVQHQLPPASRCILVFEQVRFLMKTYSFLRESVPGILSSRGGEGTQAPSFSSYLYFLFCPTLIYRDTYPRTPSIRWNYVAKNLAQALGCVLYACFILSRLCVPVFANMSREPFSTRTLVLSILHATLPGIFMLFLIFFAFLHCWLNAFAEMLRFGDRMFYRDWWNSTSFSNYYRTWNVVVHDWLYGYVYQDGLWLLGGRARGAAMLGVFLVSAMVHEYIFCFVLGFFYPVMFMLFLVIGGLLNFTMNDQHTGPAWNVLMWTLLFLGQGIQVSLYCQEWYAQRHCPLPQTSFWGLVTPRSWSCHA
Description: Inhibitory activity on acyl-CoA:cholesterol acyltransferase (ACAT)
The enzyme used in the test was prepared according to the method of Heider et al. [J. Lipid, Res. 24, 1127 (1983)]. The intestinal mucosa of a white rabbit was homogenized and microsomal fraction was obtained by stepwise centrifugation. The microsomal fraction was suspended in 0.154M phosphate buffer (pH 7.4) and stored at -80° C. until use.
ACAT activity was determined by a modification of the method of Helgerud et al. [J. Lipid Res. 22, 271 (1981)] by measuring radioactivity incorporated into cholesterol esters from [1-^14 C]oleyl-CoA, as an indication. As to the ACAT-inhibitory activity of each compound to be tested, the inhibition rate was calculated by the following equation. [formula]

[2] = system: hamsters fed on a high-cholesterol diet; assay: Serum cholesterol lowering activity in hamsters fed on a high-cholesterol diet; assay type: in vivo, Male Syrian hamsters; details: Mesocricetus auratus, 30 mg/kg per day for 4 days, 24 hours after last administration, read-out: Reduction rate of total serum cholesterol concentration
Description: Serum cholesterol lowering activity in hamsters fed on a high-cholesterol diet
Male Syrian hamsters of 10-week-old were divided into three groups. The first group (normal group) was fed an ordinary diet for 4 days. The second group (control group) was fed a high cholesterol diet (containing 0.5% cholesterol and 8.0% coconut oil) for 4 days. The third group (treated group) was fed a high cholesterol diet and was treated with a compound for 4 days. Simultaneously with the beginning of the above feeding, the compound was suspended in a 0.5% carboxymethyl cellulose solution and administered to the treated group, in a dose of 30 mg (in terms of the compound) per kg of body weight per day for 4 days. A 0.5% carboxymethyl cellulose solution was also administered to the normal group and the control group in the same manner as above.
After 24 hours of the last administration, blood was collected and the cholesterol concentration in serum was measured by an enzymatic method. The reduction rate of the total serum cholesterol concentration was calculated from values obtained for the three groups by the following equation. [formula] wherein A: the serum cholesterol concentration of the control group.
B: the serum cholesterol concentration of the treated group.
C: the serum cholesterol concentration of the normal group.

| Compound | inhibition at 0.01 µM [1] [%] | inhibition at 1 µM [1] [%] | inhibition in vivo at 30 mg/kg [2] [%] |
| --- | --- | --- | --- |
| Cc1cccc(C(C)C)c1NC(=O)Nc1c(C)nc(-c2ccccc2)nc1-c1ccccc1Cl [Compound 1, N-[4-(2-Chlorophenyl)-6-methyl-2-phenylpyrimidin-5-yl]-N'-(2-isopropyl-6-methylphenyl)urea] | 16.7 | 98 |  |
| Cc1nc(-c2ccccc2)nc(-c2ccccc2Cl)c1NC(=O)Nc1c(C(C)C)cccc1C(C)C [Compound 2, N-[4-(2-Chlorophenyl)-6-methyl-2-phenylpyrimidin-5-yl]-N'-(2,6-diisopropylphenyl)urea] | 58.5 | 99.2 | 42.7 |
| Cc1cc(C)c(NC(=O)Nc2c(C)nc(-c3ccccc3)nc2-c2ccccc2Cl)c(C)c1 [Compound 3, N-[4-(2-Chlorophenyl)-6-methyl-2-phenylpyrimidin-5-yl]-N'-(2,4,6-trimethylphenyl)urea] |  | 88.3 |  |
| Cc1nc(-c2ccccc2)nc(-c2ccccc2Cl)c1NC(=O)Nc1ccc(N(C)C)cc1 [Compound 6, N-[4-(2-Chlorophenyl)-6-methyl-2-phenylpyrimidin-5-yl]-N'-(4-dimethylaminophenyl)urea] |  | 23 |  |
| Cc1cccc(C)c1NC(=O)Nc1cnc(-c2ccccc2)nc1-c1ccccc1Cl [Compound 13, N-[4-(2-Chlorophenyl)-2-phenylpyrimidin-5-yl]-N'-(2,6-dimethylphenyl)urea] | 40.2 | 97.5 |  |
| CCc1cccc(CC)c1NC(=O)Nc1cnc(-c2ccccc2)nc1-c1ccccc1Cl [Compound 14, N-[4-(2-Chlorophenyl)-2-phenylpyrimidin-5-yl]-N'-(2,6-diethylphenyl)urea] | 58.8 | 99 | 59.4 |
| Cc1cc(C)c(NC(=O)Nc2cnc(-c3ccccc3)nc2-c2ccccc2Cl)c(C)c1 [Compound 18, N-[4-(2-Chlorophenyl)-2-phenylpyrimidin-5-yl]N'-(2,4,6-trimethylphenyl) urea] |  | 79.7 |  |
| Cc1cccc(N(C)C)c1NC(=O)Nc1cnc(-c2ccccc2)nc1-c1ccccc1Cl [Compound 19, N-[4-(2-Chlorophenyl)-2-phenylpyrimidin-5-yl]-N'-(2-dimethylamino-6-methylphenyl)urea] | 35.9 |  |  |
| O=C(Nc1cnc(-c2ccccc2)nc1-c1ccccc1Cl)Nc1c(F)cc(F)cc1F [Compound 23, N-[4-(2-Chlorophenyl)-2-phenylpyrimidin-5-yl]-N'-(2,4,6-trifluorophenyl)urea] |  | 87 |  |
| CC(C)c1cccc(C(C)C)c1NC(=O)Nc1cnc(-c2ccccc2)nc1-c1cccc(Cl)c1 [Compound 26, N-[4-(3-Chlorophenyl)-2-phenylpyrimidin-5-yl]-N'-(2,6-diisopropylphenyl)urea] | 58.9 |  |  |
| CC(C)c1cccc(C(C)C)c1NC(=O)Nc1cnc(-c2ccccc2)nc1-c1ccc(Cl)cc1 [Compound 28, N-[4-(4-Chlorophenyl)-2-phenylpyrimidin-5-yl]-N'-(2,6-diisopropylphenyl)urea] | 40.7 |  |  |
| CC(C)c1cccc(C(C)C)c1NC(=O)Nc1cnc(-c2ccccc2)nc1-c1ccc(Cl)cc1Cl [Compound 30, N-[4-(2,4-Dichlorophenyl)-2-phenylpyrimidin-5-yl]-N'-[2,6-diisopropylphenyl)urea] | 37.1 |  |  |
| CC(C)c1cccc(C(C)C)c1NC(=O)Nc1cnc(-c2ccccc2)nc1-c1ccccc1F [Compound 34, N-(2,6-Diisopropylphenyl)-N'-[4-(2-fluorophenyl)-2-phenylpyrimidin-5-yl]urea] | 65.8 |  | 74 |
| COc1ccccc1-c1nc(-c2ccccc2)ncc1NC(=O)Nc1c(C(C)C)cccc1C(C)C [Compound 40, N-(2,6-Diisopropylphenyl)-N'-[4-(2-methoxyphenyl)-2-phenylpyrimidin-5-yl]urea] | 47.5 |  |  |
| CCc1cccc(CC)c1NC(=O)Nc1cnc(-c2ccccc2)nc1-c1ccccc1SC [Compound 41, N-(2,6-Diethylphenyl)-N'-[4-(2-methylthiophenyl)-2-phenylpyrimidin-5-yl]urea] | 56.3 |  |  |
| CC(C)c1cccc(C(C)C)c1NC(=O)Nc1cnc(-c2cc(Cl)cc(Cl)c2)nc1-c1ccccc1Cl [Compound 44, N-[4-(2-Chlorophenyl)-2-(3,5-dichlorophenyl)pyrimidin-5-yl]-N'-(2,6-diisopropylphenyl)urea] | 46.8 |  |  |
| Cc1ncc(NC(=O)Nc2c(C(C)C)cccc2C(C)C)c(-c2ccccc2Cl)n1 [Compound 46, N-[4-(2-Chlorophenyl)-2-methylpyrimidin-5-yl]-N'-(2,6-diisopropylphenyl)urea] | 32 |  |  |
| CC(C)c1cccc(C(C)C)c1NC(=O)Nc1cnc(C(C)(C)C)nc1-c1ccccc1Cl [Compound 50, N-[2-t-Butyl-4-(2-chlorophenyl)pyrimidin-5-yl]-N'-(2,6-diisopropylphenyl)urea] | 48.4 |  |  |
| CCOc1ncc(NC(=O)Nc2c(C(C)C)cccc2C(C)C)c(-c2ccccc2Cl)n1 [Compound 52, N-[4-(2-Chlorophenyl)-2-ethoxypyrimidin-5-yl]-N'-(2,6-diisopropylphenyl)urea] | 64.7 |  |  |

Further lines, with some results ahead:

| inhibition at 0.01 µM [1] [%] | inhibition at 1 µM [1] [%] | Compound | inhibition in vivo at 30 mg/kg [2] [%] |
| --- | --- | --- | --- |
| 70 |  | CCc1cccc(CC)c1NC(=O)Nc1cnc(N2CCCC2)nc1-c1ccccc1Cl [Compound 53, N-[4-(2-Chlorophenyl)-2-(N-pyrrolidino)pyrimidin-5-yl]-N'-(2,6-diethylphenyl)urea] |  |
| 69.5 |  | CC(C)c1cccc(C(C)C)c1NC(=O)Nc1cnc(N2CCCCC2)nc1-c1ccccc1Cl [Compound 56, N-[4-(2-Chlorophenyl)-2-(N-piperidino)pyrimidin-5-yl]-N'-(2,6-diisopropylphenyl)urea] |  |
| 63.2 |  | CCc1cccc(CC)c1NC(=O)Nc1cnc(N2CCOCC2)nc1-c1ccccc1Cl [Compound 57, N-[4-(2-Chlorophenyl)-2-(N-morpholino)pyrimidin-5-yl]-N'-(2,6-diethylphenyl)urea] | 59.5 |
| 40.1 |  | CC(C)c1cccc(C(C)C)c1NC(=O)Nc1cnc(N2CCN(C)CC2)nc1-c1ccccc1Cl [Compound 60, N-[4-(2-Chlorophenyl)-2-(4-methyl-1-piperazino)pyrimidin-5-yl]-N'-(2,6-diisopropylphenyl)urea] |  |
| 53.1 |  | CC(C)c1cccc(C(C)C)c1NC(=O)Nc1ccc(-c2ccccc2)nc1-c1ccccc1Cl [Compound 63, N-[2-(2-Chlorophenyl)-6-phenylpyridin-3-yl]-N'-(2,6-diisopropylphenyl)urea] |  |
| 43.6 |  | Cc1ccc(NC(=O)Nc2c(C(C)C)cccc2C(C)C)c(-c2ccccc2Cl)n1 [Compound 64, N-[2-(2-Chlorophenyl)-6-methylpyridin-3-yl]-N'-(2,6-diisopropylphenyl)urea] |  |
| 29.8 |  | CCCCCCCc1ccc(NC(=O)Nc2c(C(C)C)cccc2C(C)C)c(-c2ccccc2Cl)n1 [Compound 65, N-[2-(2-Chlorophenyl)-6-(n-heptyl)pyridin-3-yl]-N'-(2,6-diisopropylphenyl)urea] |  |
| 58 |  | CC(C)c1cccc(C(C)C)c1NC(=O)Nc1ccc(C2CCCCC2)nc1-c1ccccc1Cl [Compound 67, N-[2-(2-Chlorophenyl)-6-cyclohexylpyridin-3-yl]-N'-(2,6-diisopropylphenyl)urea] |  |
